Reference: patent US20140221469A1, “PHYTOCANNABINOIDS FOR USE IN THE TREATMENT OF CANCER” (Otsuka Pharmaceutical Co., Ltd., priority 2011, published 2014)
Read-outs that look alike come from different tables or passages of the source.

Experiments:
U87 human glioma cells = assay: MTT colorimetric cell viability assay, U87; type: cell-based; settings: for Effect on tumour cell viability (MTT test), alone / Effect of CB1 antagonist on inhibition of cell proliferation / Effect of CB2 antagonist on inhibition of cell proliferation / Effect of TRPV1 vanilloid antagonist on inhibition of cell proliferation: U87; for IC50: Homo sapiens, U-87 MG, 24 h, read-out: IC50, drop of mitochondrial oxidative metabolism (MTT test); for Effect of CB1 antagonist on inhibition of cell proliferation: AM 251 (0.5 μM) added; for Effect of CB2 antagonist on inhibition of cell proliferation: SR 144528 (0.5 μM) for CBG, AM630 (0.5 μM) for CBDV; for Effect of TRPV1 vanilloid antagonist on inhibition of cell proliferation: capsazepine (0.625 μM) added
Method: The human glioma cell line U87-MG was obtained from the American Type Culture Collection (Rockville, USA). Cells were maintained in DMEM supplemented with 10% heat-inactivated foetal bovine serum (Euroclone, Italy), 1% glutamine, 1% antibiotic mixture, 1% sodium pyruvate, 1% non-essential amino acids, at 37° C. in a humidified 5% CO2 atmosphere. Cells were seeded in complete medium. After a 24 h incubation, the medium was replaced by serum-free medium (ITSS medium), consisting of DMEM supplemented with 5 μg/ml insulin, 5 μg/ml transferrin, and 5 […].
(§1) To determine the effects of the phytocannabinoids upon cell viability, the applicants employed a MTT colorimetric assay ([3-(4,5-dimethyl-2-thiazolyl)-2,5-diphenyl-2H tetrazolium bromide]; Sigma-Aldrich). Briefly, U87 human glioma cells were seeded in a 96-well flat bottom multi-well at a density of 8000 cells/well. After 24 h, cells were treated with THCV, CBDV and CBG and/or receptor antagonists at the indicated concentrations. At the end of the incubation with the drugs, MTT (0.5 mg/ml final concentration) was added to each well and the incubation was then continued for 4 h. The insoluble formazan crystals were solubilized by the addition of 100 μl of 100% dimethyl sulfoxide. The plates were read at 570 nm using an automatic microtiter plate reader.

U87 cells [1] = assay: Evaluation of apoptosis (propidium iodide flow cytometry), U87; type: cell-based, human; settings: 24 h
Method: 3.4×10^5 tumour cells were cultured in 6 well-plates in the presence or absence of CBDV or THCV for 24 h, as described above and the percentage of apoptotic cells on the total cell population (adhering/detached cells) was evaluated. Briefly, cells were collected, washed, and centrifuged at 1300 rpm. They were then fixed in ethanol 70% for at least 30 min at −20° C. After centrifugation, the cell pellet was gently re-suspended in 1 ml of PBS solution containing propidium iodide (PI, 50 μg/ml) and RNAse (20 μg/ml). Cells were analyzed after a minimum of 30 min of incubation in the dark at room temperature, and apoptosis was detected in individual cells using a flow cytometer (equipped with a single 488-nm argon laser; BD Biosciences, San Jose, Calif.) by reduced fluorescence of PI in apoptotic nuclei.

U87 glioma cells = settings: Boyden chamber; cited from earlier work
[2] = test system: subcutaneously implanted U87 human glioma cells; settings: nude mice, subcutaneous, 0.5 mg/mouse; cited from earlier work
[3] = test system: human breast cell line MDA MB 231; assay: Migration in breast cell line MDA-MB 231; type: cell-based; settings: MDA-MB 231 breast cell line
T98G cell = assay: Trypan Blue test, T98G; type: cell-based, human
Method: To further confirm the ability of CBDV, CBG and THCV to inhibit T98G cell growth, a Trypan Blue test was also conducted.

U87 cells [4] = assay: Matrigel cell invasion assay, U87; type: cell-based, human
Method: (§2) BD BioCoat matrigel invasion chambers (BD, USA) were used to examine the ability of U87 cells to penetrate the extracellular matrix. U87 cells (2.5×10^4 cells) were re-suspended in 500 μl of serum-free medium in the presence of the phytocannabinoids, and added to the upper chamber. The lower chamber was filled with 0.75 ml of complete medium as chemo-attractant. Cells were then incubated for 22 h at 37° C. After removal of cells on the upper surface of the membrane, cells on the lower surface were fixed in 100% methanol and stained with Diff-Quick stain (Medion Diagnostics, USA). Sixteen fields of cells were counted randomly in each well under a light microscope at 200× magnification. Data was expressed as the percentage of invasive cells as compared with the control. All the experiments were performed in triplicates and results were expressed as mean±SEM of three independent experiments.
The matrigel invasion assay was carried out to further examine the effect of THCV on the invasiveness on U87 glioma cells.

T98G cell line = assay: MTT test, T98G; type: cell-based, human; settings: for Effect of pre-treatment with CB1 antagonist on anti-proliferative effect: AM251; for Effect of pre-treatment with CB2 antagonist on anti-proliferative effect: AM630
Method: as §1
(§3) In a further set of experiments, Examples 8-10 the compounds were evaluated on a different cell line, T98G, which was obtained from the American Type Culture Collection (Rockville, USA). The protocols employed were as described above.

U87-MG cells = assay: Cell motility assay (Boyden chamber), U87-MG; type: cell-based, human
Method: (§4) BD BioCoat Control Inserts (BD, USA) were used to examine the ability of U87-MG cells to migrate through an 8.0 micron pore size PET membrane. U87-MG cells (2.5×10^4 cells) were re-suspended in 500 μl of serum-free medium in presence of phytocannabinoids, and added to the upper chamber. The lower chamber was filled with 0.75 ml of complete medium as chemo-attractant. Cells were then incubated for 22 h at 37° C. After removal of cells on the upper surface of the membrane, cells on the lower surface were fixed in 100% methanol and stained with Diff-Quick stain (Medion Diagnostics, USA). Sixteen fields of cells were counted randomly in each well under a light microscope at 200× magnification. Data was expressed as the percentage of migrating cells as compared with the control. All the experiments were performed in triplicates and results were expressed as mean±SEM of three independent experiments.
The effect of THCV on U87 glioma cells invasion and motility was determined by Boyden chamber assay. […] The effect was even evident at concentrations as low as 0.25 μM.

T98G glioma cells [5] = assay: Cell migration (Boyden chamber), T98G; type: cell-based, human; settings: for Inhibition of migration of the cells: irrespective of the concentration used
Method: as §4, §3
The effect of CBDV on T98G glioma cells invasion and motility was determined by Boyden chamber assay.

T98G glioma cells [6] = assay: Matrigel invasion assay, T98G; type: cell-based, human
Method: as §2, §3
The matrigel invasion assay was carried out to further examine the effect of the CBDV on the invasiveness of T98G glioma cells.

[7] = test system: recurrent glioblastoma multiforme; settings: nine patients, intra-tumoural; 95% confidence interval: 15-33; cited from earlier work
[8] = Homo sapiens, 24 h, read-out: IC50, drop of mitochondrial oxidative metabolism (MTT test)

C=C(C)[C@@H]1CCC(C)=C[C@H]1c1c(O)cc(CCCCC)cc1O [CBD, Cannabidiol, reference compound]
Effect on tumour cell viability (MTT test), alone (U87 human glioma cells; 5 μM): ineffective | Effect on tumour cell viability (MTT test), alone (U87 human glioma cells; 9 μM): effective | Apoptosis, alone (U87 cells [1]; 5 μM): did not cause any apoptosis | Apoptosis, alone (U87 cells [1]; 9 μM): significant induction of apoptosis | Migration of U87 glioma cells (U87 glioma cells): concentration-dependent inhibition | Growth of subcutaneously implanted U87 human glioma cells [2]: significantly inhibited the growth

C=C(C)[C@@H]1CCC(C)=C[C@H]1c1c(O)cc(CCCCC)c(C(=O)O)c1O [CBDA, Cannabidiolic acid]
Effect on migration [3]: inhibit migration in a statistically significant manner

C=C(C)[C@@H]1CCC(C)=C[C@H]1c1c(O)cc(CCC)cc1O [CBDV, Cannabidivarin]
IC50 (U87 human glioma cells): 24.2 µM | Effect of CB1 antagonist on inhibition of cell proliferation (U87 human glioma cells): able to significantly increase the inhibitory action of CBDV on glioma cell growth at 19, 40, and 50 μM concentrations | Effect of CB2 antagonist on inhibition of cell proliferation (U87 human glioma cells): able to significantly increase the inhibitory action of CBDV on glioma cell growth at 19, 40, and 50 μM concentrations | Effect of TRPV1 vanilloid antagonist on inhibition of cell proliferation (U87 human glioma cells): a significant increase of the inhibitory action of CBDV was seen only at 14 and 19 μM | Cell viability, Trypan Blue test (T98G cell): inhibited cells viability in the same dose range as for MTT test | Concentration as low as which the anti-invasive effect was evident (U87 cells [4]; U87): 1 µM | Decrease of the number of invading cells, average effect (U87 cells [4]; U87, across the concentrations tested): 45% | IC50 (T98G cell line; 24 h after cannabinoid exposure): 27 µM | Effect of pre-treatment with CB1 antagonist on anti-proliferative effect (T98G cell line): exhibited some sensitivity | Effect of pre-treatment with CB2 antagonist on anti-proliferative effect (T98G cell line): exhibited some sensitivity | IC50 (T98G cell line; Homo sapiens, 24 h, read-out: IC50, drop of mitochondrial oxidative metabolism (MTT test), T98G, 24 h after cannabinoid exposure): 27.1 µM | Concentration as low as which the anti-migratory effect was evident (U87-MG cells): 1 µM | Effect on cell migration (U87-MG cells): significantly inhibited the migration | Concentration as low as which the anti-migratory effect was evident (T98G glioma cells [5]): 0.5 µM | Inhibition of migration of the cells (T98G glioma cells [5]): 55% | Inhibition of cell invasiveness (T98G glioma cells [6]; concentration range from 0.5 to 12 μM): about 70%

CCCCCc1cc(O)c(C/C=C(\C)CCC=C(C)C)c(O)c1 [CBG, Cannabigerol]
IC50 (U87 human glioma cells): 12.1 µM | Effect of CB1 antagonist on inhibition of cell proliferation (U87 human glioma cells): able to antagonize the inhibitory action of the phytocannabinoid on glioma cells growth only at 19 and 25 μM concentrations | Effect of CB2 antagonist on inhibition of cell proliferation (U87 human glioma cells): failed to antagonize the anti-proliferative effect | Effect of TRPV1 vanilloid antagonist on inhibition of cell proliferation (U87 human glioma cells): failed to antagonize the anti-proliferative effect | Cell viability, Trypan Blue test (T98G cell): inhibited cells viability in the same dose range as for MTT test | Effect on cell invasion (U87 cells [4]; U87): did not inhibit | Effect of pre-treatment with CB1 antagonist on anti-proliferative effect (T98G cell line): unaffected | Effect of pre-treatment with CB2 antagonist on anti-proliferative effect (T98G cell line): unaffected | IC50 (T98G cell line; [8]): 17.3 µM | Effect on cell migration (U87-MG cells): did not inhibit | Effect on cell migration (T98G glioma cells [5]): did not inhibit | Effect on cell invasion (T98G glioma cells [6]): did not inhibit

CCCCCc1cc(O)c2c(c1)OC(C)(C)[C@@H]1CCC(C)=C[C@@H]21 [THC, Tetrahydrocannabinol]
Median survival from the beginning of cannabinoid administration [7]: 24 weeks

CCCCCc1cc2c(c(O)c1C(=O)O)[C@@H]1C=C(C)CC[C@H]1C(C)(C)O2 [THCA, Tetrahydrocannabinolic acid]
Effect on migration [3]: inhibit migration in a statistically significant manner

CCCc1cc(O)c2c(c1)OC(C)(C)[C@@H]1CCC(C)=C[C@@H]21 [THCV, Tetrahydrocannabivarin]
IC50 (U87 human glioma cells): 13.8 µM | Effect on tumour cell viability (MTT test), alone (U87 human glioma cells; 5 μM): ineffective | Effect on tumour cell viability (MTT test), alone (U87 human glioma cells; 10 μM): effective | Effect of CB1 antagonist on inhibition of cell proliferation (U87 human glioma cells): none of the antagonists was effective in reversing and/or potentiating the effect | Effect of CB2 antagonist on inhibition of cell proliferation (U87 human glioma cells): none of the antagonists was effective in reversing and/or potentiating the effect | Effect of TRPV1 vanilloid antagonist on inhibition of cell proliferation (U87 human glioma cells): none of the antagonists was effective in reversing and/or potentiating the effect | Cell viability, Trypan Blue test (T98G cell): inhibited cells viability in the same dose range as for MTT test | Apoptosis, alone (U87 cells [1]; 5 μM): did not cause any apoptosis | Apoptosis, alone (U87 cells [1]; 10 μM): did not cause any apoptosis | inhibition at 5 µM (U87 cells [4]; Homo sapiens, U-87 MG, read-out: Inhibition of cell invasiveness): 55% | Inhibition of cell invasiveness (U87 cells [4]; U87, 0.5 and 1 μM): about 35% | Effect of pre-treatment with CB1 antagonist on anti-proliferative effect (T98G cell line): unaffected | Effect of pre-treatment with CB2 antagonist on anti-proliferative effect (T98G cell line): unaffected | IC50 (T98G cell line; [8]): 16.1 µM | Concentration as low as which the anti-migratory effect was evident (U87-MG cells): 0.25 µM | Inhibition of migration of the cells (U87-MG cells; irrespectively of the concentrations used, 22 h): 55% | Inhibition of migration of the cells (T98G glioma cells [5]): about 50% | Effect on cell invasion (T98G glioma cells [6]): U-shaped dose-response curve
